Test results: article PMC6576746, “Rational discovery of dual-indication multi-target PDE/Kinase inhibitor for precision anti-cancer therapy using structural systems pharmacology” (PLoS Computational Biology, 2019)

Columns and labels:
Assay in all cases: biochemical
Parameters in all cases: DiscoverX KinomeScan competition binding assay across human kinases; per cent of control at 10 and 100 uM
EPHA3 = EPHA3 (Homo sapiens, UniProt P29320); details: competition binding, % of control; read-out: Percent Control (100 uM Levosimendan)
Method in brief: (§1)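 Binding is expressed as %control, normalised between positive and negative control signals. The compound (levosimendan) was tested at 10 μM and 100 μM in the DiscoverX KinomeScan competition binding format against human kinases.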

LOK = molecular target: T1, LOK (Homo sapiens, UniProt O94804); details: competition binding, % of control; read-out: Percent Control (100 uM Levosimendan)
T1 construct: gene STK10
T1 sequence (O94804 whole entry): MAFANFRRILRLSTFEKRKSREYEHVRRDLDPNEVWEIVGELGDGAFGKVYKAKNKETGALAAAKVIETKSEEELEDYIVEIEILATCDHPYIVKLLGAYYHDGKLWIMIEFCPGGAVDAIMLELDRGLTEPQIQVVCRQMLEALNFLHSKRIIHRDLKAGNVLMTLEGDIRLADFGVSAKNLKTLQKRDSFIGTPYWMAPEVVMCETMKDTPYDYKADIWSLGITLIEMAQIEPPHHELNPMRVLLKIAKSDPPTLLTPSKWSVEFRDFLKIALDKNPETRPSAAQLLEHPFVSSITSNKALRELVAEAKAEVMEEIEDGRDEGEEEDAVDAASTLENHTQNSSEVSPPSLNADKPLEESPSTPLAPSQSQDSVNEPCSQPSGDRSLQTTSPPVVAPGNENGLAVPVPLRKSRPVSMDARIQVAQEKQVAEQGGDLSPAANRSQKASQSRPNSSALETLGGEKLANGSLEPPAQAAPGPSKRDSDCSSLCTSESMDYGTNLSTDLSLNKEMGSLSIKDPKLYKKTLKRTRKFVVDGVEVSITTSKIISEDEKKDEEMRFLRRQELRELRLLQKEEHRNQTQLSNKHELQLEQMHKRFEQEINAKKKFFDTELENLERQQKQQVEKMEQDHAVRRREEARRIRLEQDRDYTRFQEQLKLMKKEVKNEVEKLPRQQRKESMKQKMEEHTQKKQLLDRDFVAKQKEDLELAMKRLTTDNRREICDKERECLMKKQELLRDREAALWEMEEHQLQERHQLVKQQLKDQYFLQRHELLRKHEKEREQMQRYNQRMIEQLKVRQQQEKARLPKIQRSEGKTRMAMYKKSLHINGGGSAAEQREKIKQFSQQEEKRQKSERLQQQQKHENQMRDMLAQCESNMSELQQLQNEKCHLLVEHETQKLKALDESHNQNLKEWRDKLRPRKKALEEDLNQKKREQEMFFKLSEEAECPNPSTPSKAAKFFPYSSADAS
Method in brief: as §1

MET = MET (Homo sapiens, UniProt P08581); details: competition binding, % of control; read-out: Percent Control (100 uM Levosimendan)
Method in brief: as §1

EPHB4 = EPHB4 (Homo sapiens, UniProt P54760); details: competition binding, % of control; read-out: Percent Control (100 uM Levosimendan)
Method in brief: as §1

AURKC = AURKC (Homo sapiens, UniProt Q9UQB9); details: competition binding, % of control; read-out: Percent Control (100 uM Levosimendan)
Chain of AURKC (Q9UQB9 whole entry): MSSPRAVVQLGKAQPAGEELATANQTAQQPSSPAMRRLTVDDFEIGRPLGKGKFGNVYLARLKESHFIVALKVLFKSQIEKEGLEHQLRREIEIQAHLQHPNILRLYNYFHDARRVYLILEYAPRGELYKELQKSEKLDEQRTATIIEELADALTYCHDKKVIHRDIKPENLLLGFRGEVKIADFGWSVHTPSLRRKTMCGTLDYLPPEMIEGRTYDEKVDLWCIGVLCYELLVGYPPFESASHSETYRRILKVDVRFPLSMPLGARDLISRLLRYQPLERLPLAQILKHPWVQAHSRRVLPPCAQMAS
Method in brief: as §1

EPHA1 = EPHA1 (Homo sapiens, UniProt P21709); details: competition binding, % of control; read-out: Percent Control (100 uM Levosimendan)
Method in brief: as §1

PIK3CA(C420R) = PIK3CA(C420R) (Homo sapiens, UniProt P42336, C420R); details: competition binding, % of control; read-out: Percent Control (100 uM Levosimendan)
Method in brief: as §1

ALK(L1196M) = ALK(L1196M) (Homo sapiens, UniProt Q9UM73, L1196M); details: competition binding, % of control; read-out: Percent Control (100 uM Levosimendan)
Method in brief: as §1

HUNK = HUNK (Homo sapiens, UniProt P57058); details: competition binding, % of control; read-out: Percent Control (100 uM Levosimendan)
Chain of HUNK (P57058 whole entry): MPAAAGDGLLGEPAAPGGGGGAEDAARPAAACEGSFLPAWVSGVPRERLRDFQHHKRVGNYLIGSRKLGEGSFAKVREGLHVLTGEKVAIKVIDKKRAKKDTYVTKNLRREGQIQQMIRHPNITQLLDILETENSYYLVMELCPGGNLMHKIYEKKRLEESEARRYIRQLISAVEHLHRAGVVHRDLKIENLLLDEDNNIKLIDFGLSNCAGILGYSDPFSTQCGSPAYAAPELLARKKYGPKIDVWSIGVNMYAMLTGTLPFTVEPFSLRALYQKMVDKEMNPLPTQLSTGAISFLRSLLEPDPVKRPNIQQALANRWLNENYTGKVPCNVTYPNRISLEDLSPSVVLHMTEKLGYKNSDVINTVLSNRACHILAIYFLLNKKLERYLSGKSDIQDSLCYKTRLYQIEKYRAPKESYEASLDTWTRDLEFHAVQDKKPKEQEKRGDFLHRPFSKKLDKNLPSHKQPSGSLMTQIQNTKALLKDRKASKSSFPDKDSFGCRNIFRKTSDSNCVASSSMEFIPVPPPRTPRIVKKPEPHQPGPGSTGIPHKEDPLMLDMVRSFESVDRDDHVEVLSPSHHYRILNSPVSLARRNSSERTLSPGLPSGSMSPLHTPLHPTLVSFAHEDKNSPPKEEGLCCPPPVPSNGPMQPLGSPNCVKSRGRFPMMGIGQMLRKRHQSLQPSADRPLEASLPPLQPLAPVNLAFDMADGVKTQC
Method in brief: as §1

TNK1 = TNK1 (Homo sapiens, UniProt Q13470); details: competition binding, % of control; read-out: Percent Control (100 uM Levosimendan)
Method in brief: as §1

EPHA7 = EPHA7 (Homo sapiens, UniProt Q15375); details: competition binding, % of control; read-out: Percent Control (100 uM Levosimendan)
Method in brief: as §1

[1] = molecular target: T2, ABL1(F317L)-phosphorylated (Homo sapiens, UniProt P00519, F317L); details: competition binding, % of control; read-out: Percent Control (100 uM Levosimendan)
T2 construct: phosphorylated
Method in brief: as §1

CDC2L2 = molecular target: T3, CDC2L2 (Homo sapiens, UniProt Q9UQ88); details: competition binding, % of control; read-out: Percent Control (100 uM Levosimendan)
T3 construct: gene CDK11A
T3 sequence (Q9UQ88 whole entry): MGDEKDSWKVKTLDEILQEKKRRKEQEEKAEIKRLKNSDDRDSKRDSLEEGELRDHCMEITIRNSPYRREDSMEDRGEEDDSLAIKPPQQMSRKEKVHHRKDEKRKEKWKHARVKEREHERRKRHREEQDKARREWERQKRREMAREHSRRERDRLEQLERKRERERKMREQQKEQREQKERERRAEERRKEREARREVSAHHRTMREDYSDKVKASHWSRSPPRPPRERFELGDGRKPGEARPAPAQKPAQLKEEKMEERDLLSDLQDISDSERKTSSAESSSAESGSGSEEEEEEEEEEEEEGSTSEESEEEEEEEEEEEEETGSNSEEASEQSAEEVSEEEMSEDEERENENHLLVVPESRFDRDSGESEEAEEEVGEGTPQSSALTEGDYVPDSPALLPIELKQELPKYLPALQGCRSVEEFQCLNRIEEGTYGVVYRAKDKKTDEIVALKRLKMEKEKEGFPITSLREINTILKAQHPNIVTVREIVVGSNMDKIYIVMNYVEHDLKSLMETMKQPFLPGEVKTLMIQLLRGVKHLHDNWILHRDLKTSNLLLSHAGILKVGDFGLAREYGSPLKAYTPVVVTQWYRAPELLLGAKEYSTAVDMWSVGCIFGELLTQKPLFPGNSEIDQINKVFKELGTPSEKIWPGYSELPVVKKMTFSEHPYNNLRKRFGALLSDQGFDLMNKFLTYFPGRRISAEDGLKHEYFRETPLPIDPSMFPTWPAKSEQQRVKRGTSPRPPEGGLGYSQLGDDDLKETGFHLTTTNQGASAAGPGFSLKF
Method in brief: as §1

BRK = molecular target: T4, BRK (Homo sapiens, UniProt Q13882); details: competition binding, % of control; read-out: Percent Control (100 uM Levosimendan)
T4 construct: gene PTK6
T4 sequence (Q13882 whole entry): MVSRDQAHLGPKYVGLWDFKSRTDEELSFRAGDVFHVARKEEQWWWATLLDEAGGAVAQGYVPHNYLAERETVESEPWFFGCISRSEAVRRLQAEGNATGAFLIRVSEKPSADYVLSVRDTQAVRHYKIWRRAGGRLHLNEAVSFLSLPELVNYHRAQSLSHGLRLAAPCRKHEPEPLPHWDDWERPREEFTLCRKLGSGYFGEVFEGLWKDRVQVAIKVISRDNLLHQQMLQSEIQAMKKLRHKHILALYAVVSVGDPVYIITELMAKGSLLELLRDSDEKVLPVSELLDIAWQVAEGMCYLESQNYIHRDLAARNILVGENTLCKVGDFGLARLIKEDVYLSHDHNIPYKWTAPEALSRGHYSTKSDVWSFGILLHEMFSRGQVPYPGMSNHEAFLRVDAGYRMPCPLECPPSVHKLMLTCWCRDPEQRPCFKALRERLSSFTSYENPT
Method in brief: as §1

CAMK2B = CAMK2B (Homo sapiens, UniProt Q13554); details: competition binding, % of control; read-out: Percent Control (100 uM Levosimendan)
Method in brief: as §1

YSK4 = molecular target: T5, YSK4 (Homo sapiens, UniProt Q56UN5); details: competition binding, % of control
T5 construct: gene MAP3K19
T5 sequence (Q56UN5 whole entry): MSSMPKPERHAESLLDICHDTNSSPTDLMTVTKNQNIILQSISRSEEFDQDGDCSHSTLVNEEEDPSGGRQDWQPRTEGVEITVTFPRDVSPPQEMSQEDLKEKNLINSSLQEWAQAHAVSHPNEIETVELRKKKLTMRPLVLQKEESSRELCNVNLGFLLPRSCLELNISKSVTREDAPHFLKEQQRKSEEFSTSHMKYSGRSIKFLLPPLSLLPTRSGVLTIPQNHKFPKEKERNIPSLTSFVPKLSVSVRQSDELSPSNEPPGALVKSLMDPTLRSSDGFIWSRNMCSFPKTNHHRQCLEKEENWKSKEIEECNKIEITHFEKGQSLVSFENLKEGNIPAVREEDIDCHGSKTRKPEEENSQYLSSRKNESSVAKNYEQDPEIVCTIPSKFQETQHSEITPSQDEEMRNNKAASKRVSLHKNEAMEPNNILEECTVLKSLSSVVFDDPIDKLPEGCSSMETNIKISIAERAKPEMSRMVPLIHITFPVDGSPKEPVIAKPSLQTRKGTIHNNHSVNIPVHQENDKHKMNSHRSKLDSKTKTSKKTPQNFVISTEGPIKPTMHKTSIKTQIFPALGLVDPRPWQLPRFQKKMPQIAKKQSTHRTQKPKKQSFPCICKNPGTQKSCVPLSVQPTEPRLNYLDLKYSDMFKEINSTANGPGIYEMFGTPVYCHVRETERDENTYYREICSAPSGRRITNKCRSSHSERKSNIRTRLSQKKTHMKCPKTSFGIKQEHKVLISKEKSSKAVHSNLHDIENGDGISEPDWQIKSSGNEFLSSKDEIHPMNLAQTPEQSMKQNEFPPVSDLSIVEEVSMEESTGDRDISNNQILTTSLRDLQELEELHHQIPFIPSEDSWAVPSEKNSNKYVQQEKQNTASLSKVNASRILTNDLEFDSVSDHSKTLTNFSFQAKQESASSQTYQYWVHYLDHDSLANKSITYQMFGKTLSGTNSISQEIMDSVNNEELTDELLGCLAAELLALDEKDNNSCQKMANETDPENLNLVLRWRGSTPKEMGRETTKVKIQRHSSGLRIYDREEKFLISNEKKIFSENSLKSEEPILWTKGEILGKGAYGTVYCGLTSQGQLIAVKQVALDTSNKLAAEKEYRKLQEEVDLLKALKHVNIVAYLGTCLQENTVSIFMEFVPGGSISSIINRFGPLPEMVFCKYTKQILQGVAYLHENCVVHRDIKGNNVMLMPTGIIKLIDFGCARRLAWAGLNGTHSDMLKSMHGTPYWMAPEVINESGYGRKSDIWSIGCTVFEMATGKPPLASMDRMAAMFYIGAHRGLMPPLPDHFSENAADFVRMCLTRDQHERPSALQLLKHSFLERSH
Method in brief: as §1

PIK3CA(I800L) = PIK3CA(I800L) (Homo sapiens, UniProt P42336, I800L); details: competition binding, % of control; read-out: Percent Control (100 uM Levosimendan)
Method in brief: as §1

AURKA = AURKA (Homo sapiens, UniProt O14965); details: competition binding, % of control; read-out: Percent Control (100 uM Levosimendan)
Chain of AURKA (O14965 whole entry): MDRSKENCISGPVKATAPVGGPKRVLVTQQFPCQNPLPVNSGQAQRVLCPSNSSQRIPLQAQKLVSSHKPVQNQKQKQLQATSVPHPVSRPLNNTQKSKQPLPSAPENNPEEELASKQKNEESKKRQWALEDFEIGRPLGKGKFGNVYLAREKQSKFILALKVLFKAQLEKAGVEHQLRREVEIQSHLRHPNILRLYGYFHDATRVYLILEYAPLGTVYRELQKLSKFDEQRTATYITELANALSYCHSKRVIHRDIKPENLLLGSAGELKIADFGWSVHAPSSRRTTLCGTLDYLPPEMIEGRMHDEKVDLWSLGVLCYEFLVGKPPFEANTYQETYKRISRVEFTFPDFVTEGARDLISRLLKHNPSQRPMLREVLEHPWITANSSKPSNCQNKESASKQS
Method in brief: as §1

MET(Y1235D) = MET(Y1235D) (Homo sapiens, UniProt P08581, Y1235D); details: competition binding, % of control; read-out: Percent Control (100 uM Levosimendan)
Method in brief: as §1

- remaining binding at 100 µM (EPHA3): 97%
- remaining binding at 100 µM (LOK): 70%
- remaining binding at 100 µM (MET): 55%
- remaining binding at 100 µM (EPHB4): 85%
- remaining binding at 100 µM (AURKC): 100%
- remaining binding at 100 µM (EPHA1): 98%
- remaining binding at 100 µM (PIK3CA(C420R)): 100%
- remaining binding at 100 µM (ALK(L1196M)): 72%
- remaining binding at 100 µM (HUNK): 100%
- remaining binding at 100 µM (TNK1): 100%
- remaining binding at 100 µM (EPHA7): 85%
- remaining binding at 100 µM [1]: 59%
- remaining binding at 100 µM (CDC2L2): 100%
- remaining binding at 100 µM (BRK): 85%
- remaining binding at 100 µM (CAMK2B): 90%
- remaining binding at 10 µM (YSK4; read-out: Percent Control (10 uM Levosimendan)): 48%
- remaining binding at 100 µM (YSK4; read-out: Percent Control (100 uM Levosimendan)): 10%
- remaining binding at 100 µM (PIK3CA(I800L)): 83%
- remaining binding at 100 µM (AURKA): 73%
- remaining binding at 100 µM (MET(Y1235D)): 57%
SMILES: C[C@@H]1CC(=O)NN=C1c1ccc(NN=C(C#N)C#N)cc1 [levosimendan]
